Measured values: BindingDB's records for doi:10.1016/j.bmc.2014.04.036 (Amri, 2014)

The compounds below were run against T1, Sodium/glucose cotransporter 1 (Homo sapiens, UniProt P13866) (assay: Inhibition of human SGLT1 expressed in CHOK1 cells assessed as inhibition of [14C]-AMG uptake after 3 hrs by microbeta scintillation counting analysis).
T1 sequence (P13866 whole entry): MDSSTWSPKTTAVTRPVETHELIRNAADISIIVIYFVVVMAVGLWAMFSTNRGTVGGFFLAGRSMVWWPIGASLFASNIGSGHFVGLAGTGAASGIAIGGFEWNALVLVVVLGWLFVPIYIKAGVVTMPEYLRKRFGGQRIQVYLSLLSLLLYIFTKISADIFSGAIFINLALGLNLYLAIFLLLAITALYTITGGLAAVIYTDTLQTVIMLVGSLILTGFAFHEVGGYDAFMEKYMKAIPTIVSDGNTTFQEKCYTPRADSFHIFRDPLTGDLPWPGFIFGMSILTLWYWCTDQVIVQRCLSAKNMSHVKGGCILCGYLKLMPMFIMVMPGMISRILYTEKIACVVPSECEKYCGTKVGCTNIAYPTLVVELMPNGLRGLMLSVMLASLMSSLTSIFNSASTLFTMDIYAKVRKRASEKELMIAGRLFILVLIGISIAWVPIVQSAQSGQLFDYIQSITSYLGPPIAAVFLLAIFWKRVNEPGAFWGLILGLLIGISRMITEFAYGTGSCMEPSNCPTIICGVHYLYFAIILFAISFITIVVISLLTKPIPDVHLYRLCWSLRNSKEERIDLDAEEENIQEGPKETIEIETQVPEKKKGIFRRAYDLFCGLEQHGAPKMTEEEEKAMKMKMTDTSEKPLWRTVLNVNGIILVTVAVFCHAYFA

IC50 [µM]	Structure (SMILES)
> 90	O=c1n(Cc2cc([C@@H]3O[C@H](CO)[C@@H](O)[C@H](O)[C@H]3O)ccc2Cl)nc2ccc(C(F)(F)F)cn12 [US8575114, I-5]
> 90	O=c1n(Cc2cc([C@@H]3O[C@H](CO)[C@@H](O)[C@H](O)[C@H]3O)ccc2Cl)nc2ccc(CO)cn12 [US8575114, I-6]
> 90	Cc1cc2nn(Cc3cc([C@@H]4O[C@H](CO)[C@@H](O)[C@H](O)[C@H]4O)ccc3Cl)c(=O)n2cc1Cl [US8575114, I-12]
